Legend:
human 11β-HSD1 = molecular target: T1, human 11β-HSD1 (Homo sapiens, UniProt P28845); assay: Enzyme activity analysis on human 11β-HSD1 (HTRF cortisol, liver microsomes); type: biochemical; conditions: first value of cell
T1 construct: 100 ug/ml human/mouse liver microsomes; from tissue; host or cells: human liver microsomes
Experimental: (§1) After culturing at 37° C. for 2 hours, 5 μl of cryptate-labeled anti-cortisol antibody and 5 μl of d2-labeled cortisol were added thereto. After further culturing at room temperature for 2 hours, a homogeneous time-resolved fluorescence (HTRF, Cisbio) signal was measured. From each analysis, based on a standard curve calculated using cortisols of several known concentrations, an amount of produced cortisol was tested.
(§2) While an amount of cortisol, produced without the compound, was used as a control, an inhibition percentage by the test compound, at each concentration, was calculated. By using an inhibition curve calculated by coordinates of inhibition percentage to test compound concentration, an IC50 value of the compound on 11β-HSD1 was obtained.

mouse 11β-HSD1 = molecular target: T2, mouse 11β-HSD1 (Mus musculus, UniProt P50172); assay: Enzyme activity analysis on mouse 11β-HSD1 (HTRF cortisol, liver microsomes); type: biochemical; conditions: second value of cell
T2 construct: 100 ug/ml human/mouse liver microsomes; from tissue; host or cells: mouse liver microsomes
T2 sequence (P50172 whole entry): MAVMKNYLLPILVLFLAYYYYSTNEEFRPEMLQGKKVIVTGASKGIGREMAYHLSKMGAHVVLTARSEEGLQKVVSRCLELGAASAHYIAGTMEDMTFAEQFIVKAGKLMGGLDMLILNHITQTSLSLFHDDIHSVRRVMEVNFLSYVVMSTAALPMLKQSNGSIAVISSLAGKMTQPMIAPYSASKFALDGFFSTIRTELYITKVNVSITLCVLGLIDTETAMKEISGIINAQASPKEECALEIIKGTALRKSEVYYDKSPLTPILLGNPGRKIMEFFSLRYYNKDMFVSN
Experimental: as §1, §2

T1 sequence (P28845 whole entry): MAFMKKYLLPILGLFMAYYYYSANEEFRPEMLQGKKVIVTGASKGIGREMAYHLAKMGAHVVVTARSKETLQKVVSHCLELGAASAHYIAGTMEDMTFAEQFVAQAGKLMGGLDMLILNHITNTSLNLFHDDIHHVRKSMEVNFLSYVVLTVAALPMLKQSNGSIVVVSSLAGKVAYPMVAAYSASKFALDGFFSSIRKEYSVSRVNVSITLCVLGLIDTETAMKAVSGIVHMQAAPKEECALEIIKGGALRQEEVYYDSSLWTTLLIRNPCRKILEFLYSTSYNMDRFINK

| SMILES | IC50 (human 11β-HSD1) [µM] | IC50 (mouse 11β-HSD1) [µM] |
| --- | --- | --- |
| O=C(NC1C2CC3CC(C2)CC1C3)C1(NS(=O)(=O)c2ccccc2OC(F)(F)F)CCC1 (stereo not shown) [compound 144, N-(adamantane-2-yl)-1-(2-trifluoromethoxyphenylsulfonamido)cyclobutanecarboxyamide] | 0.265 | 1.82 |
| CC(C)(NS(=O)(=O)Cc1ccccc1[N+](=O)[O-])C(=O)NC1C2CC3CC(C2)CC1C3 (stereo not shown) [compound 22, N-(adamantane-2-yl)-2-methyl-2-((2-nitrophenyl)methylsulfonamido)propanamide] | 0.033 | 1.06 |
| CC(C)(NS(=O)(=O)c1c(Cl)cc(Cl)cc1Cl)C(=O)NC1C2CC3CC(C2)CC1C3 (stereo not shown) [compound 14, N-(adamantane-2-yl)-2-methyl-2-(2,4,6-trichlorophenylsulfonamido)propanamide] | 0.17 | – |
| CC(C)(NS(=O)(=O)c1ccc(C(C)(C)C)cc1)C(=O)NC1C2CC3CC(C2)CC1C3 (stereo not shown) [compound 18, N-(adamantane-2-yl)-2-methyl-2-(4-(t-butyl)phenylsulfonamido)propanamide] | 1.14 | – |
| CC(C)(NS(=O)(=O)c1cccc(C(F)(F)F)c1)C(=O)NC1C2CC3CC(C2)CC1C3 (stereo not shown) [compound 19, N-(adamantane-2-yl)-2-methyl-2-(3-trifluoromethylphenylsulfonamido)propanamide] | 0.478 | – |
| CC(C)(NS(=O)(=O)c1cccc2ccccc12)C(=O)NC1C2CC3CC(C2)CC1C3 (stereo not shown) [compound 20, N-(adamantane-2-yl)-2-methyl-2-(naphthalene-1-sulfonamido)propanamide] | 0.304 | – |

Further lines, results first:

| IC50 (human 11β-HSD1) [µM] | IC50 (mouse 11β-HSD1) [µM] | SMILES |
| --- | --- | --- |
| 0.021 | 0.099 | NC(=O)C12CC3CC(C1)C(NC(=O)C1(NS(=O)(=O)c4ccccc4Cl)CCC1)C(C3)C2 (stereo not shown) [compound 152, N-4-(1-(2-chlorophenylsulfonamido)cyclobutanecarboxyamido)adamantane-1-carboxyamide] |
| 0.008 | 0.016 | Cc1c(Cl)cccc1S(=O)(=O)NC1(C(=O)NC2C3CC4CC2CC(C(N)=O)(C4)C3)CCCC1 (stereo not shown) [compound 167, N-4-(1-(3-chloro-2-methylphenylsulfonamido)cyclopentanecarboxyamido)adamantane-1-carboxyamide] |
| 0.373 | 0.443 | NC(=O)C12CC3CC(C1)C(NC(=O)C1(NS(=O)(=O)c4cc(F)ccc4F)CCC1)C(C3)C2 (stereo not shown) [compound 163, N-4-(1-(2,5-difluorophenylsulfonamido)cyclobutanecarboxyamido)adamantane-1-carboxyamide] |
| 0.235 | 0.456 | COc1ccc(S(=O)(=O)NC(C)(C)C(=O)NC2C3CC4CC2CC(C(N)=O)(C4)C3)cc1F (stereo not shown) [compound 115, N-4-(2-(3-fluoro-4-methoxyphenylsulfonamido)-2-methylpropanamido)adamantane-1-carboxyamide] |
| 0.03 | 0.049 | Cc1ccccc1S(=O)(=O)NC1(C(=O)NC2C3CC4CC2CC(C(N)=O)(C4)C3)CCCC1 (stereo not shown) [compound 169, N-4-(1-(2-methylphenylsulfonamido)cyclopentanecarboxyamido)adamantane-1-carboxyamide] |
| 0.35 | – | CC(C)(NS(=O)(=O)c1ccc(Cl)c(Cl)c1)C(=O)NC1C2CC3CC(C2)CC1C3 (stereo not shown) [compound 11, N-(adamantane-2-yl)-2-methyl-2-(3,4-dichlorophenylsulfonamido)propanamide] |
| 0.466 | – | CC(C)(NS(=O)(=O)c1ccc2ccccc2c1)C(=O)NC1C2CC3CC(C2)CC1C3 (stereo not shown) [compound 21, N-(adamantane-2-yl)-2-methyl-2-(naphthalene-2-sulfonamido)propanamide] |
| 0.404 | – | COc1ccc(S(=O)(=O)NC(C)(C)C(=O)NC2C3CC4CC(C3)CC2C4)cc1 (stereo not shown) [compound 24, N-(adamantane-2-yl)-2-methyl-2-(4-methoxyphenylsulfonamido)propanamide] |
| – | 0.015 | CN(C(C)(C)C(=O)NC1C2CC3CC1CC(C(N)=O)(C3)C2)S(=O)(=O)c1ccccc1F (stereo not shown) [compound 195, N-4-(2-(2-fluoro-N-methylphenylsulfonamido)-2-methylpropanamido)adamantane-1-carboxyamide] |
